Values after ≈ are worked out from the molar mass of the structure shown.
Assays:
Test in all cases: minimum inhibitory concentration (ETEST)
Neisseria meningitidis = system: Neisseria meningitidis
Method: (§1)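 Oropharyngeal Neisseria isolates from MSM and employees in Belgium were identified to species by MALDI-TOF MS. MICs of azithromycin, ceftriaxone and ciprofloxacin were determined by ETEST on GC agar after 24 h at 36.5 °C and 5-7% CO2, in mg/L. Values beyond the strip range are reported as >256 (azithromycin) or <0.016 (ceftriaxone); isolates that did not grow are NA.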

Neisseria elongata = settings: population: general population, antibiotic use in previous 6 months: No
Method: as §1

Neisseria cinerea = settings: population: general population, antibiotic use in previous 6 months: No
Method: as §1

Neisseria bacilliformis = settings: isolate id (sample isolate): Co000780_5; population: general population; antibiotic use in previous 6 months: No
Method: as §1

Neisseria oralis = settings: population: general population, antibiotic use in previous 6 months: No
Method: as §1

Neisseria mucosa/macacae = system: Neisseria mucosa/macacae
Method: as §1

Neisseria lactamica = settings: population: general population, antibiotic use in previous 6 months: No
Method: as §1

O=C(O)c1cn(C2CC2)c2cc(N3CCNCC3)c(F)cc2c1=O [ciprofloxacin]
Settings | minimum inhibitory concentration
Neisseria meningitidis, isolate id (sample isolate): 19040471_1, population: MSM, antibiotic use in previous 6 months: No | 3 ng/mL (≈ 0.00905 µM)
Neisseria meningitidis, isolate id (sample isolate): 19040855_1, population: MSM, antibiotic use in previous 6 months: No | 4 ng/mL (≈ 0.0121 µM)
Neisseria meningitidis, isolate id (sample isolate): 19040874_2, population: MSM, antibiotic use in previous 6 months: No | 4 ng/mL (≈ 0.0121 µM)
Neisseria meningitidis, isolate id (sample isolate): 19040900_2, population: MSM, antibiotic use in previous 6 months: No | 4 ng/mL (≈ 0.0121 µM)
Neisseria meningitidis, isolate id (sample isolate): 19042150_2, population: MSM, antibiotic use in previous 6 months: Yes | 2 ng/mL (≈ 0.00604 µM)
Neisseria meningitidis, isolate id (sample isolate): 19042756_3, population: MSM, antibiotic use in previous 6 months: Yes | 8 ng/mL (≈ 0.0241 µM)
Neisseria meningitidis, isolate id (sample isolate): 19043201_1, population: MSM, antibiotic use in previous 6 months: No | 3 ng/mL (≈ 0.00905 µM)
Neisseria meningitidis, isolate id (sample isolate): 19043201_2, population: MSM, antibiotic use in previous 6 months: No | 3 ng/mL (≈ 0.00905 µM)
Neisseria meningitidis, isolate id (sample isolate): 19043274_1, population: MSM, antibiotic use in previous 6 months: Yes | 4 ng/mL (≈ 0.0121 µM)
Neisseria meningitidis, isolate id (sample isolate): 19043274_2, population: MSM, antibiotic use in previous 6 months: Yes | 4 ng/mL (≈ 0.0121 µM)
Neisseria meningitidis, isolate id (sample isolate): 19051853_1, population: MSM, antibiotic use in previous 6 months: No | 4 ng/mL (≈ 0.0121 µM)
Neisseria meningitidis, isolate id (sample isolate): 19052394_3, population: MSM, antibiotic use in previous 6 months: Yes | 2 ng/mL (≈ 0.00604 µM)
Neisseria meningitidis, isolate id (sample isolate): 19052434_1, population: MSM, antibiotic use in previous 6 months: Yes | 6 ng/mL (≈ 0.0181 µM)
Neisseria meningitidis, isolate id (sample isolate): 19060069_1, population: MSM, antibiotic use in previous 6 months: Yes | 6 ng/mL (≈ 0.0181 µM)
Neisseria meningitidis, isolate id (sample isolate): 19060069_2, population: MSM, antibiotic use in previous 6 months: Yes | 4 ng/mL (≈ 0.0121 µM)
Neisseria meningitidis, isolate id (sample isolate): 19060089_2, population: MSM, antibiotic use in previous 6 months: Yes | 2 ng/mL (≈ 0.00604 µM)
Neisseria meningitidis, isolate id (sample isolate): 19061666_1, population: MSM, antibiotic use in previous 6 months: Yes | 64 ng/mL (≈ 0.193 µM)
Neisseria meningitidis, isolate id (sample isolate): 19062990_1, population: MSM, antibiotic use in previous 6 months: Yes | 4 ng/mL (≈ 0.0121 µM)
Neisseria meningitidis, isolate id (sample isolate): 19070019_2, population: MSM, antibiotic use in previous 6 months: No | 3 ng/mL (≈ 0.00905 µM)
Neisseria meningitidis, isolate id (sample isolate): 19070019_4, population: MSM, antibiotic use in previous 6 months: No | 3 ng/mL (≈ 0.00905 µM)
Neisseria meningitidis, isolate id (sample isolate): 19070047_1, population: MSM, antibiotic use in previous 6 months: No | 6 ng/mL (≈ 0.0181 µM)
Neisseria meningitidis, isolate id (sample isolate): 19082621_2, population: MSM, antibiotic use in previous 6 months: No | 4 ng/mL (≈ 0.0121 µM)
Neisseria meningitidis, isolate id (sample isolate): 19091461_1, population: MSM, antibiotic use in previous 6 months: No | 8 ng/mL (≈ 0.0241 µM)
Neisseria meningitidis, isolate id (sample isolate): 19091461_2, population: MSM, antibiotic use in previous 6 months: No | 8 ng/mL (≈ 0.0241 µM)
Neisseria meningitidis, isolate id (sample isolate): 19091973_1, population: MSM, antibiotic use in previous 6 months: No | 3 ng/mL (≈ 0.00905 µM)
Neisseria meningitidis, isolate id (sample isolate): 19092429_3, population: MSM, antibiotic use in previous 6 months: No | 3 ng/mL (≈ 0.00905 µM)
Neisseria meningitidis, isolate id (sample isolate): 19103457_1, population: MSM, antibiotic use in previous 6 months: No | 3 ng/mL (≈ 0.00905 µM)
Neisseria meningitidis, isolate id (sample isolate): 19103457_4, population: MSM, antibiotic use in previous 6 months: No | 3 ng/mL (≈ 0.00905 µM)
Neisseria meningitidis, isolate id (sample isolate): 19110394_1, population: MSM, antibiotic use in previous 6 months: No | 3 ng/mL (≈ 0.00905 µM)
Neisseria meningitidis, isolate id (sample isolate): 19113049_3, population: MSM, antibiotic use in previous 6 months: No | 4 ng/mL (≈ 0.0121 µM)
Neisseria meningitidis, isolate id (sample isolate): 19113049_6, population: MSM, antibiotic use in previous 6 months: No | 3 ng/mL (≈ 0.00905 µM)
Neisseria meningitidis, isolate id (sample isolate): Co000765_1, population: general population, antibiotic use in previous 6 months: No | 4 ng/mL (≈ 0.0121 µM)
Neisseria meningitidis, isolate id (sample isolate): Co000790_1, population: general population, antibiotic use in previous 6 months: No | 125 ng/mL (≈ 0.377 µM)
Neisseria meningitidis, isolate id (sample isolate): Co000790_3, population: general population, antibiotic use in previous 6 months: No | 125 ng/mL (≈ 0.377 µM)
Neisseria mucosa/macacae, isolate id (sample isolate): 19041762_2, population: MSM, antibiotic use in previous 6 months: Yes | 0.016 mg/L (≈ 0.0483 µM)
Neisseria mucosa/macacae, isolate id (sample isolate): 19051904_1, population: MSM, antibiotic use in previous 6 months: Yes | 0.25 mg/L (≈ 0.754 µM)
Neisseria mucosa/macacae, isolate id (sample isolate): 19052394_2, population: MSM, antibiotic use in previous 6 months: Yes | 0.012 mg/L (≈ 0.0362 µM)
Neisseria mucosa/macacae, isolate id (sample isolate): 19062968_1, population: MSM, antibiotic use in previous 6 months: Yes | 6 mg/L (≈ 18.1 µM)
Neisseria mucosa/macacae, isolate id (sample isolate): 19081774_2, population: MSM, antibiotic use in previous 6 months: No | 0.016 mg/L (≈ 0.0483 µM)
Neisseria mucosa/macacae, isolate id (sample isolate): 19111422_4, population: MSM, antibiotic use in previous 6 months: No | 0.016 mg/L (≈ 0.0483 µM)
Neisseria mucosa/macacae, isolate id (sample isolate): 19111422_7, population: MSM, antibiotic use in previous 6 months: No | 0.016 mg/L (≈ 0.0483 µM)
Neisseria mucosa/macacae, isolate id (sample isolate): Co000770_5, population: general population, antibiotic use in previous 6 months: No | 0.023 mg/L (≈ 0.0694 µM)
Neisseria mucosa/macacae, isolate id (sample isolate): Co000771_4, population: general population, antibiotic use in previous 6 months: No | 0.016 mg/L (≈ 0.0483 µM)
Neisseria mucosa/macacae, isolate id (sample isolate): Co000772_3, population: general population, antibiotic use in previous 6 months: No | 0.006 mg/L (≈ 0.0181 µM)
Neisseria mucosa/macacae, isolate id (sample isolate): Co000773_3, population: general population, antibiotic use in previous 6 months: No | 0.006 mg/L (≈ 0.0181 µM)
Neisseria mucosa/macacae, isolate id (sample isolate): Co000779_1, population: general population, antibiotic use in previous 6 months: No | 0.032 mg/L (≈ 0.0966 µM)
Neisseria mucosa/macacae, isolate id (sample isolate): Co000783_3, population: general population, antibiotic use in previous 6 months: No | 0.012 mg/L (≈ 0.0362 µM)
Neisseria mucosa/macacae, isolate id (sample isolate): Co000783_6, population: general population, antibiotic use in previous 6 months: No | 0.023 mg/L (≈ 0.0694 µM)
Neisseria mucosa/macacae, isolate id (sample isolate): Co000787_3, population: general population, antibiotic use in previous 6 months: No | 0.064 mg/L (≈ 0.193 µM)
Neisseria mucosa/macacae, isolate id (sample isolate): Co000788_1, population: general population, antibiotic use in previous 6 months: No | 0.012 mg/L (≈ 0.0362 µM)
Neisseria mucosa/macacae, isolate id (sample isolate): Co000788_4, population: general population, antibiotic use in previous 6 months: No | 0.012 mg/L (≈ 0.0362 µM)

Settings | minimum inhibitory concentration
Neisseria cinerea, isolate id (sample isolate): Co000769_3 | 0.006 mg/L (≈ 0.0181 µM)
Neisseria cinerea, isolate id (sample isolate): Co000776_4 | 0.032 mg/L (≈ 0.0966 µM)
Neisseria cinerea, isolate id (sample isolate): Co000776_5 | 0.032 mg/L (≈ 0.0966 µM)
Neisseria cinerea, isolate id (sample isolate): Co000782_1 | 0.012 mg/L (≈ 0.0362 µM)
Neisseria elongata, isolate id (sample isolate): Co000767_3 | 4 ng/mL (≈ 0.0121 µM)
Neisseria elongata, isolate id (sample isolate): Co000780_1 | 4 ng/mL (≈ 0.0121 µM)
Neisseria elongata, isolate id (sample isolate): Co000783_4 | 23 ng/mL (≈ 0.0694 µM)
Neisseria lactamica, isolate id (sample isolate): Co000761_1 | 0.19 mg/L (≈ 0.573 µM)
Neisseria lactamica, isolate id (sample isolate): Co000771_1 | 0.064 mg/L (≈ 0.193 µM)
Neisseria oralis, isolate id (sample isolate): Co000761_7 | 0.016 mg/L (≈ 0.0483 µM)
Neisseria oralis, isolate id (sample isolate): Co000763_1 | 0.012 mg/L (≈ 0.0362 µM)
Neisseria oralis, isolate id (sample isolate): Co000766_2 | 0.023 mg/L (≈ 0.0694 µM)
Neisseria oralis, isolate id (sample isolate): Co000770_1 | 0.016 mg/L (≈ 0.0483 µM)
Neisseria oralis, isolate id (sample isolate): Co000774_1 | 0.023 mg/L (≈ 0.0694 µM)
Neisseria oralis, isolate id (sample isolate): Co000776_1 | 0.016 mg/L (≈ 0.0483 µM)
Neisseria oralis, isolate id (sample isolate): Co000776_1.1 | 0.012 mg/L (≈ 0.0362 µM)
Neisseria oralis, isolate id (sample isolate): Co000779_2 | 0.012 mg/L (≈ 0.0362 µM)
Neisseria oralis, isolate id (sample isolate): Co000790_5 | 0.006 mg/L (≈ 0.0181 µM)

Settings | minimum inhibitory concentration [mg/L]
Neisseria bacilliformis | 0.125 (≈ 0.377 µM)

— the supplement of paper PMC8741786
